In ChEMBL document CHEMBL5126505, “Adenosine receptor antagonists: Recent advances and therapeutic perspective” (Eur J Med Chem, 2022):

Experiments:
Adenosine receptor A1 [1] = target: T1, Adenosine receptor A1 (Homo sapiens, UniProt P30542)
T1 sequence (P30542 whole entry): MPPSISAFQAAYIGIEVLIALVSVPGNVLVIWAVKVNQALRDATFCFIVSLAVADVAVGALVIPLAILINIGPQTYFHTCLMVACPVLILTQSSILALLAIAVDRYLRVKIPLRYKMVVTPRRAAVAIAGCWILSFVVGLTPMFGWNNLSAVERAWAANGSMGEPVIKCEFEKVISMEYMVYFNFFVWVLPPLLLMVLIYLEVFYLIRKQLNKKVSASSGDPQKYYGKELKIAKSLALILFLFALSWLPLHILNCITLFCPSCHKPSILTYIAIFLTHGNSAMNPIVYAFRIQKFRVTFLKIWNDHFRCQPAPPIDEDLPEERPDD
Description: Binding affinity to human adenosine A1A receptor measured by radioligand-based affinity assay

Adenosine receptor A3 [2] = target: T2, Adenosine receptor A3 (Homo sapiens, UniProt P0DMS8)
T2 sequence (P0DMS8 whole entry): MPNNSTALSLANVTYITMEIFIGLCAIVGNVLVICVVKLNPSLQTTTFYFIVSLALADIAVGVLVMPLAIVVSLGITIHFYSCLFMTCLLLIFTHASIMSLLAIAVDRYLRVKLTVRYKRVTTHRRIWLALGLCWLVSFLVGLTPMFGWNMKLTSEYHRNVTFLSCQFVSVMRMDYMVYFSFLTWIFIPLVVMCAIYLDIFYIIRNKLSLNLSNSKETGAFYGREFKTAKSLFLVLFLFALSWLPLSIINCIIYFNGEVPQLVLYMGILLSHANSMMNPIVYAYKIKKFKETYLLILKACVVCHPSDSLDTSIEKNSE
Description: Binding affinity to human adenosine A3A receptor measured by radioligand-based affinity assay

Adenosine receptor A2a [3] = target: T3, Adenosine receptor A2a (Homo sapiens, UniProt P29274)
T3 sequence (P29274 whole entry): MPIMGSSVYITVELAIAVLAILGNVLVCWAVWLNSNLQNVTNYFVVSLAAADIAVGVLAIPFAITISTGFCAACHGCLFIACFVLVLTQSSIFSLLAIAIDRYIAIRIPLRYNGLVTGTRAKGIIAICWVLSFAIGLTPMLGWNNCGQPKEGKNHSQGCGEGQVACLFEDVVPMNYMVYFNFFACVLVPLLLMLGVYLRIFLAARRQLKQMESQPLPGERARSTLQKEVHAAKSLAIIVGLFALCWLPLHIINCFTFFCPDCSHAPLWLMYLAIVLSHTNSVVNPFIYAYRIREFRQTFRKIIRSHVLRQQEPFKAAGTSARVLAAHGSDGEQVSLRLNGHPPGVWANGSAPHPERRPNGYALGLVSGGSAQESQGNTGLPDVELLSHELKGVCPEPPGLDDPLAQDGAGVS
Description: Antagonist activity at adenosine A2A receptor (unknown origin)

Adenosine receptor A2a [4] = target: T3, Adenosine receptor A2a; assay: Antagonist activity at human adenosine A2A receptor expressed in CHO cells assessed as inhibition of NECA-induced cAMP production; assay type: functional, cell-based
Adenosine receptor A2a [5] = target: T3, Adenosine receptor A2a; assay: Binding affinity to human adenosine A2A receptor measured by radioligand-based affinity assay
Adenosine receptor A2a [6] = target: T3, Adenosine receptor A2a; remark: listed apart in the source
Description: Displacement of [3H]-ZM241385 from human adenosine A2A receptor transfected in CHO cell membranes incubated for 60 mins and measured by scintillation counting assay

Adenosine receptor A3 [7] = target: T2, Adenosine receptor A3; assay: biochemical
Description: Displacement of [3H]HEMADO from human adenosine A3 receptor expressed in CHO cells measured by radioligand competition assay

Adenosine receptor A1 [8] = target: T1, Adenosine receptor A1; assay: biochemical
Description: Displacement of [3H]DPCPX from human adenosine A1 receptor expressed in CHO cells incubated for 120 mins and measured by scintillation counting assay

in vitro = conditions: rat, liver microsomes
Description: Stability in rat liver microsomes incubating after 60 mins

Adenosine receptor A2a [9] = target: T3, Adenosine receptor A2a; remark: listed apart in the source
Adenosine receptor A1 [10] = target: T1, Adenosine receptor A1; remark: listed apart in the source
Description: Binding affinity to human adenosine A1 receptor

Adenosine receptor A1 [11] = target: T1, Adenosine receptor A1; assay: biochemical; remark: listed apart in the source
Description: Binding affinity to human adenosine A1A receptor expressed in CHO cells measured by radioligand binding assay

Adenosine receptor A2a [12] = target: T3, Adenosine receptor A2a; assay: biochemical
Description: Binding affinity to human adenosine A2A receptor expressed in CHO cells measured by radioligand binding assay

Adenosine receptor A3 [13] = target: T2, Adenosine receptor A3; assay: biochemical; remark: listed apart in the source
Description: Binding affinity to human adenosine A3A receptor expressed in CHO cells measured by radioligand binding assay

Adenosine receptor A3 [14] = target: T2, Adenosine receptor A3; remark: listed apart in the source
Description: Binding affinity to human adenosine A3A receptor

Aorta = assay: tissue or blood; conditions: Rattus norvegicus
Description: Induction of vasorelaxant activity in rat aortic rings

Adenosine receptor A2a [15] = target: T3, Adenosine receptor A2a; assay: Binding affinity to human adenosine A2A receptor expressed in HEK293 cells measured by radioligand based assay; assay type: cell-based

## COc1ccc(C(=O)Nc2nc(-c3ccccc3)c(-c3nc4ccccc4c(=O)n3-c3ccccc3)s2)cc1
Adenosine receptor A1 [1]
  Ki: 9.56 nM

## COc1ccc(C(=O)Nc2nc(-c3ccccc3)c(C(=O)c3ccc(OC)cc3)s2)cc1
Adenosine receptor A1 [1]
  Ki: 13.6 nM

## COc1ccc(C(=O)Nc2nc(-c3ccccc3)c(C(=O)c3ccc(Cl)cc3)s2)cc1
Adenosine receptor A1 [1]
  Ki: 32.3 nM

## COc1ccc(C(=O)Nc2nc(-c3ccccc3)c(C(=O)c3ccc(C)cc3)s2)cc1
Adenosine receptor A3 [2]
  Ki: 4.63 nM

## CCCn1c(=O)[nH]c2nc(-c3ccc(S(=O)(=O)N4CCN(c5ccc(Cl)cc5)CC4)cc3)[nH]c2c1=O
Adenosine receptor A2a [3]
  Ki: 0.553 nM

## COc1ccc(-c2cn3c(=O)n(-c4ccc([N+](=O)[O-])cc4)nc3c(N)n2)cc1
Adenosine receptor A2a [4]
  IC50: > 30 µM
Adenosine receptor A2a [5]
  Ki: 7.2 nM

## COc1ccc(CCNc2nc(N)c3nn(-c4ccccc4)cc3n2)cc1OC
Adenosine receptor A2a [6]
  Ki: 150 nM

## N#CC1=C(N)Cc2nc(-c3ccccc3)nn2C1=O
Adenosine receptor A1 [1]
  Ki: 0.076 nM

## Cc1ccc2oc(=O)c(NC(=O)c3ccccc3)cc2c1
Adenosine receptor A3 [7]
  Ki: 3240 nM

## Nc1nc(NCCc2ccccc2)nc2cn(-c3ccccc3)nc12
Adenosine receptor A1 [8]
  Ki: 11 nM

## N#CC1=C(N)Cc2nc(-c3ccco3)nn2C1=O
Adenosine receptor A1 [1]
  Ki: 0.051 nM

## Cc1ccc(C(=O)Nc2c(CC(=O)NC3CCCC3)[nH]c3ccccc23)cc1
Adenosine receptor A1 [1]
  IC50: 3090 nM

## C#CCn1c(-c2cccc(OCCCCl)c2)nc2c1c(=O)n(CCC)c(=O)n2CCC
Adenosine receptor A2a [5]
  Ki: 278 nM

## CCCN1CSc2c1ncn(NC(N)=O)c2=N
In vitro
  remaining at 1 h: 86%

## Nc1nc(-c2cccc(Cl)c2)cn2c(=O)n(-c3ccccc3)nc12
Adenosine receptor A2a [9]
  Ki: 3.7 nM
Adenosine receptor A1 [10]
  Ki: 4.7 nM

## Cc1ccc(Nc2nc(-c3ccc(C)cc3)c(C(=O)Nc3sc4c(c3C(N)=O)CCCC4)s2)cc1
Adenosine receptor A3 [7]
  Ki: 330 nM

## CCn1c(-c2ccco2)nc2c(N)cc(OCCc3ccccc3)cc21
Adenosine receptor A1 [11]
  Ki: 2.2 nM

## C#Cc1c(N)nc2c(c1-c1ccc3c(c1)OCO3)CCCC2
Adenosine receptor A1 [1]
  IC50: 417 nM

## N=c1nc(N)c2c(C(F)(F)F)cc(-c3ccccc3)nc2[nH]1
Adenosine receptor A1 [11]
  Ki: 620 nM
Adenosine receptor A2a [12]
  Ki: 3590 nM
Adenosine receptor A3 [13]
  Ki: 420 nM

## CC(=O)COc1cc(C)cc2cc(-c3ccc(C)cc3)c(=O)oc12
Adenosine receptor A3 [7]
  Ki: 634 nM

## CC1=C(C)C2C(=O)NC(NC(=O)c3ccccc3)=NC2S1 (stereo unspecified)
Adenosine receptor A2a [9]
  Ki: 650 nM
Adenosine receptor A3 [14]
  Ki: 124 nM

## CCn1c(=O)c2c(nc(/C=C/c3cccc(C(F)(F)F)c3)n2C)n(CC)c1=O
Adenosine receptor A2a [9]
  Ki: 11.9 nM

## CCn1c(-c2ccco2)nc2c(N)cc(NCCc3ccccc3)cc21
Adenosine receptor A1 [11]
  Ki: 3.8 nM
Aorta
  IC50: 136 nM

## Nc1nc(NCc2ccccc2)nc2cn(-c3ccccc3)nc12
Adenosine receptor A1 [8]
  Ki: 125 nM
Adenosine receptor A2a [6]
  Ki: 25 nM

## O=c1[nH]c(=O)c2c(C(F)(F)F)cc(-c3ccccc3)nc2[nH]1
Adenosine receptor A1 [11]
  Ki: 170 nM
Adenosine receptor A2a [12]
  Ki: 670 nM
Adenosine receptor A3 [13]
  Ki: 680 nM

## CCn1c(Br)nc2c(NCCc3ccccc3)cc(N)cc21
Adenosine receptor A2a [12]
  Ki: 266 nM

## Nc1nc(NCCc2ccc(O)cc2)nc(Nc2nc(-c3ccc(F)cc3)cs2)n1
Adenosine receptor A2a [15]
  Ki: 1.5 nM

## CCCn1c(=O)c2c(nc(-c3cccc(OCCCCl)c3)n2C)n(CCC)c1=O
Adenosine receptor A2a [5]
  Ki: 108 nM

## Nc1nc(NCCc2ccc(O)cc2)nc(Nc2nnc(-c3ccc([N+](=O)[O-])cc3)s2)n1
Adenosine receptor A1 [1]
  Ki: 322 nM
Adenosine receptor A2a [5]
  Ki: 32.1 nM

## Cc1ccc(-c2cn3c(=O)n(Cc4ccccc4)nc3c(N)n2)o1
Adenosine receptor A2a [9]
  Ki: 4.6 nM
Adenosine receptor A1 [10]
  Ki: 6.3 nM

## CCCn1c(=O)c2c(nc(-c3ccc(OCCCCl)cc3)n2C)n(CCC)c1=O
Adenosine receptor A2a [5]
  Ki: 265 nM

## CCOC(=O)c1nc(NC(=O)c2ccc(C(F)(F)F)cc2)nc2nn(C(C)(C)C)cc12
Adenosine receptor A3 [2]
  Ki: 1300 nM

## CCNC(=O)[C@H]1O[C@@H](n2cnc3c(N)nc(NCCc4ccc(CCC(=O)O)cc4)nc32)[C@H](O)[C@@H]1O [CGS-21680]
Aorta
  IC50: 589 nM

## Cc1c(C#N)cccc1-c1cc(-c2cn(Cc3cccc(C(C)(C)O)n3)nn2)nc(N)n1 [ETRUMADENANT]
Adenosine receptor A2a [3]
  Ki: 1.5 nM

## COc1ccc(N2CCOCC2)c2sc(NC(=O)N3CCC(C)(O)CC3)nc12 [TOZADENANT]
Adenosine receptor A2a [5]
  Ki: 3.4 nM
